Source: patent US20240117431A1, “STEM-CELL BASED BIOMARKER DISCOVERY” (THE REGENTS OF THE UNIVERSITY OF CALIFORNIA, priority 2020, published 2024)
Entries after “also recorded” stand apart in the source; their conditions may differ.

Tests used:
[1] = test system: co-culture of mCherry HEK cells and GFP-TgUPRT variant HEK cells; assay: Co-culture specificity, dot blot of biotinylated total RNA (CuAAC or IEDDA); assay type: cell-based; settings: 5 hours
Method: Co-culture of HEK cells containing GFP or mCherry expression plasmids: HEK293 (5×105) cells seeded in 6-well plate. Thirty-six hour post seeding, HEK cells were transfected with 1 μg of single plasmid containing EGFP, mCherry, EGFP-TgUPRT-WT, or EGFP-TgUPRT-Mut. Twenty-four hour post transfection, transiently transfected HEK cells were trypsinized and seeded into a 5 cm plate. Equal amounts of cells (approximately 2×106 in total) where 1×10^6 cells containing GFP or GFP-TgUPRT plasmids and 1×10^6 cells containing mCherry construct) were co-cultured. Three co-culture conditions are Condition (A): mCherry and EGFP, Condition (B): mCherry and EGFP-WT-TgUPRT, and Condition (C): mCherry and EGFP-3×MT-TgUPRT (pKN-CMV-EGFP-TgUPRT-Mut16 or -Mut17). Sixteen hours post seeding, the co-cultures were treated with 5EU and 5VU for 5 hours at 200 μM and 500 μM final concentration, respectively. Cell imaging was performed to assess the overall distribution of green and red cells in each co-culture. Once imaging was done, cells were harvested and subjected to RNA isolation. Total RNA isolated from the co-culture was subjected to biotinylation by two click methods: (1) CuAAC to assess 5EU incorporation in RNA and (2) IEDDA to assess 5VU incorporation in RNA. Subsequently, biotinylated RNA was subjected to dot blot analysis. […]

[2] = target: T1, uracil monophosphate synthetase (UMPS) overexpressed in HEK cells (Homo sapiens, UniProt P11172); assay: RNA incorporation with overexpression of UMPS, dot blot; assay type: cell-based; settings: 1 mM, 24 hours, FIG. 12
T1 construct: expressed in transfected cells; host or cells: HEK cells
T1 sequence (P11172 1-480): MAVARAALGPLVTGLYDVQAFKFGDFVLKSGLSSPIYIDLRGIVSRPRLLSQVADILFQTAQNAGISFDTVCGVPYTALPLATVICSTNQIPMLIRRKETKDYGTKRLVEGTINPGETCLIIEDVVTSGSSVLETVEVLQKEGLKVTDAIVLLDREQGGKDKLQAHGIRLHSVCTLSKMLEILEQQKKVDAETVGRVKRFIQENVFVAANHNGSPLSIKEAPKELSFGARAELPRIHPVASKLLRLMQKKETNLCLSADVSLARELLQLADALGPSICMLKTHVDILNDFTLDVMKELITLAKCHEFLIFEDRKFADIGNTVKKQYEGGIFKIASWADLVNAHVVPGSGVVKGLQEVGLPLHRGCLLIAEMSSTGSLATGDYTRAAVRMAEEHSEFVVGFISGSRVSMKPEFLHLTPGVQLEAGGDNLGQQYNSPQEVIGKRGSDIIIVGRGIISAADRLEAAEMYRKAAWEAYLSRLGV
Method: Analogs were incubated for 24 hours at 1 mM concentration in HEK cells. RNA was extracted and biotinylated using MTSEA-Biotin, followed by dot-blot analysis. Strep-HRP=Streptavidin conjugated Horseradish peroxidase. MeBI=methylene blue staining serving as loading control.

| SMILES | incorporation into RNA in the absence of TgUPRT (co-culture dot blot) ([1]; 200 μM 5EU with 500 μM 5VU) | incorporation into cellular RNA with UMPS overexpression [2] | incorporation into RNA mediated by GFP-3×MT-TgUPRT (co-culture dot blot) ([1]; 500 μM 5VU with 200 μM 5EU) |
| --- | --- | --- | --- |
| C#Cc1c[nH]c(=O)[nH]c1=O [compound 1, 5-ethynylpyrimidine-2,4(1H,3H)-dione] | detectable signal | higher amount; also recorded: incorporation | – |
| C=Cc1c[nH]c(=O)[nH]c1=O [compound 2, 5-Vinylpyrimidine-2,4(1H,3H)-dione] | – | did not result in 2 incorporation into RNA and not | substantially |
